Source: patent US20260364214A1, “MULTIVALENT FIBROBLAST ACTIVATION PROTEIN LIGANDS FOR TARGETED DELIVERY APPLICATIONS” (Philochem AG, priority 2022, published 2026)

Columns and labels:
[1] = Determination of Log D7.4 (1-octanol/PBS); assay type: physicochemical; conditions: 1-octanol/PBS pH 7.4; 177Lu-labeled
Procedure: The lipophilicity of ^177Lu-ESV6, ^177Lu-Bi-ESV6, ^177Lu-Tri-ESV6 and ^177Lu-FAP-2286 was determined as follows. 100 μL aliquots of the radioligand (~1 MBq) in PBS buffer were added to PBS buffer (500 μL, pH 7.4) and 1-octanol (600 μL). The two-layer mixture were vigorously shaken for 10 minutes on a vortex mixer and then centrifuged at 700 rpm for 5 min to facilitate the separation. 100 μL aliquots of both layers were measured in a Packard Cobra Gamma Counter and the partition coefficient was determined by dividing cpm (octanol) by cpm (PBS) and indicated as Log D7.4. • Log D7.4 (^177Lu-ESV6): −4.13 • Log D7.4 (^177Lu-Bi-ESV6): −3.75 • Log D7.4 (^177Lu-Tri-ESV6): −3.10 • Log D7.4 (^177Lu-FAP-2286): −3.05

[2] = tested on: SK-RC-52.hFAP tumors; experiment: Quantitative biodistribution in SK-RC-52.hFAP tumor bearing mice; assay type: in vivo, mouse (female athymic Balb/c AnNRj-Foxn1); conditions: i.v. 250 nmol/kg, 50 MBq/kg
How it was run: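 Female athymic Balb/c nude mice carried subcutaneous SK-RC-52.hFAP tumors (5 million cells, ~300 mm^3). 177Lu-labeled conjugates were given i.v. at 250 nmol/kg, 50 MBq/kg. Tissues gamma-counted at several time points as %ID/g±SD, tumor values corrected for growth rate; tumor-to-organ ratios derived.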

[3] = 6 h post injection, listed as 177Lu-TriESV6-DOTAGA, 360 min

In the case of N#CC1CC(F)(F)CN1C(=O)CNC(=O)c1ccnc2c(NC(=O)CCC(=O)NCCNC(=O)CCOCC(COCCC(=O)NCCNC(=O)CCC(=O)Nc3cccc4c(C(=O)NCC(=O)N5CC(F)(F)CC5C#N)ccnc34)(COCCC(=O)NCCNC(=O)CCC(=O)Nc3cccc4c(C(=O)NCC(=O)N5CC(F)(F)CC5C#N)ccnc34)NC(=O)CCC(C(=O)O)N3CCN(CC(=O)[O-])CCN(CC(=O)[O-])CCN(CC(=O)[O-])CC3)cccc12.[177Lu+3] (stereo not shown) [^177Lu-Tri-ESV6-DOTAGA], the “Log D7.4” value [1] is reported as −3.10, the “Tumor to organs ratio, Blood” value ([2]; 6 h) is reported as 260.4 and the “Injected dose per gram, Blood” value ([2]; 6 h post injection) is reported as 0.25 % ID/g. For the same compound, the “Tumor to organs ratio, Blood” value ([2]; 24 h) was 284.8, the “Injected dose per gram, Blood” value ([2]; 24 h post injection) was 0.07 % ID/g and the “Tumor to organs ratio, Blood” value ([2]; 48 h) was 1925.8. For the same compound, the “Injected dose per gram, Blood” value ([2]; 48 h post injection) was 0.01 % ID/g, the “Tumor to organs ratio, Blood” value ([2]; 72 h) was 7913.2 and the “Injected dose per gram, Blood” value ([2]; 72 h post injection) was 0.01 % ID/g. For the same compound, the “Tumor to organs ratio, Blood” value ([2]; 96 h) was 3504, the “Injected dose per gram, Blood” value ([2]; 96 h post injection) was 0.00 % ID/g and the “Tumor to organs ratio, Heart” value ([2]; 6 h) was 215.4. For the same compound, the “Injected dose per gram, Heart” value ([2]; 6 h post injection) was 0.23 % ID/g, the “Tumor to organs ratio, Heart” value ([2]; 24 h) was 269.1 and the “Injected dose per gram, Heart” value ([2]; 24 h post injection) was 0.08 % ID/g. For the same compound, the “Tumor to organs ratio, Heart” value ([2]; 48 h) was 559.6, the “Injected dose per gram, Heart” value ([2]; 48 h post injection) was 0.03 % ID/g and the “Tumor to organs ratio, Heart” value ([2]; 72 h) was 344.2. The “Injected dose per gram, Heart” value ([2]; 72 h post injection) was 0.07 % ID/g, the “Tumor to organs ratio, Heart” value ([2]; 96 h) was 492 and the “Injected dose per gram, Heart” value ([2]; 96 h post injection) was 0.03 % ID/g. The “Tumor to organs ratio, Intestine” value ([2]; 6 h) was 188.9, the “Injected dose per gram, Intestine” value ([2]; 6 h post injection) was 0.26 % ID/g and the “Tumor to organs ratio, Intestine” value ([2]; 24 h) was 243.1. The “Injected dose per gram, Intestine” value ([2]; 24 h post injection) was 0.10 % ID/g, the “Tumor to organs ratio, Intestine” value ([2]; 48 h) was 282.6 and the “Injected dose per gram, Intestine” value ([2]; 48 h post injection) was 0.06 % ID/g. The “Tumor to organs ratio, Intestine” value ([2]; 72 h) was 498.0, the “Injected dose per gram, Intestine” value ([2]; 72 h post injection) was 0.07 % ID/g and the “Tumor to organs ratio, Intestine” value ([2]; 96 h) was 763. For the same compound, the “Injected dose per gram, Intestine” value ([2]; 96 h post injection) was 0.02 % ID/g, the “Tumor to organs ratio, Kidney” value ([2]; 6 h) was 22.9 and the “Injected dose per gram, Kidney” value ([2]; 6 h post injection) was 2.14 % ID/g. For the same compound, the “Tumor to organs ratio, Kidney” value ([2]; 24 h) was 17.2, the “Injected dose per gram, Kidney” value ([2]; 24 h post injection) was 1.16 % ID/g and the “Tumor to organs ratio, Kidney” value ([2]; 48 h) was 21.4. The “Injected dose per gram, Kidney” value ([2]; 48 h post injection) was 0.78 % ID/g, the “Tumor to organs ratio, Kidney” value ([2]; 72 h) was 24.8 and the “Injected dose per gram, Kidney” value ([2]; 72 h post injection) was 0.83 % ID/g. The “Tumor to organs ratio, Kidney” value ([2]; 96 h) was 22, the “Injected dose per gram, Kidney” value ([2]; 96 h post injection) was 0.73 % ID/g and the “Tumor to organs ratio, Liver” value ([2]; 6 h) was 76.3. The “Injected dose per gram, Liver” value ([2]; 6 h post injection, 360 min) was 0.65 % ID/g, the “Injected dose per gram, Liver” value [2, 3] was ~ 0.7 % ID/g and the “Tumor to organs ratio, Liver” value ([2]; 24 h) was 43.9. For the same compound, the “Injected dose per gram, Liver” value ([2]; 24 h post injection) was 0.46 % ID/g, the “Tumor to organs ratio, Liver” value ([2]; 48 h) was 56.2 and the “Injected dose per gram, Liver” value ([2]; 48 h post injection) was 0.31 % ID/g. For the same compound, the “Tumor to organs ratio, Liver” value ([2]; 72 h) was 1294.6, the “Injected dose per gram, Liver” value ([2]; 72 h post injection) was 0.34 % ID/g and the “Tumor to organs ratio, Liver” value ([2]; 96 h) was 41. For the same compound, the “Injected dose per gram, Liver” value ([2]; 96 h post injection) was 0.40 % ID/g, the “Tumor to organs ratio, Lung” value ([2]; 6 h) was 128.8 and the “Injected dose per gram, Lung” value ([2]; 6 h post injection) was 0.38 % ID/g. The “Tumor to organs ratio, Lung” value ([2]; 24 h) was 196.9, the “Injected dose per gram, Lung” value ([2]; 24 h post injection) was 0.10 % ID/g and the “Tumor to organs ratio, Lung” value ([2]; 48 h) was 299.5. The “Injected dose per gram, Lung” value ([2]; 48 h post injection) was 0.06 % ID/g, the “Tumor to organs ratio, Lung” value ([2]; 72 h) was 477.1 and the “Injected dose per gram, Lung” value ([2]; 72 h post injection) was 0.11 % ID/g. The “Tumor to organs ratio, Lung” value ([2]; 96 h) was 344, the “Injected dose per gram, Lung” value ([2]; 96 h post injection) was 0.06 % ID/g and the “Tumor to organs ratio, Muscle” value ([2]; 6 h) was 187.0. The “Injected dose per gram, Muscle” value ([2]; 6 h post injection) was 0.45 % ID/g, the “Tumor to organs ratio, Muscle” value ([2]; 24 h) was 159.9 and the “Injected dose per gram, Muscle” value ([2]; 24 h post injection) was 0.18 % ID/g. For the same compound, the “Tumor to organs ratio, Muscle” value ([2]; 48 h) was 1095.4, the “Injected dose per gram, Muscle” value ([2]; 48 h post injection) was 0.04 % ID/g and the “Tumor to organs ratio, Muscle” value ([2]; 72 h) was 536.6. The “Injected dose per gram, Muscle” value ([2]; 72 h post injection) was 0.04 % ID/g, the “Tumor to organs ratio, Muscle” value ([2]; 96 h) was 514 and the “Injected dose per gram, Muscle” value ([2]; 96 h post injection) was 0.03 % ID/g. The “Tumor to organs ratio, Spleen” value ([2]; 6 h) was 196.0, the “Injected dose per gram, Spleen” value ([2]; 6 h post injection, 360 min) was 0.30 % ID/g and the “Injected dose per gram, Spleen” value [2, 3] was ~ 0.3 % ID/g. For the same compound, the “Tumor to organs ratio, Spleen” value ([2]; 24 h) was 384.4, the “Injected dose per gram, Spleen” value ([2]; 24 h post injection) was 0.16 % ID/g and the “Tumor to organs ratio, Spleen” value ([2]; 48 h) was 244.8. For the same compound, the “Injected dose per gram, Spleen” value ([2]; 48 h post injection) was 0.10 % ID/g, the “Tumor to organs ratio, Spleen” value ([2]; 72 h) was 92.1 and the “Injected dose per gram, Spleen” value ([2]; 72 h post injection) was 0.24 % ID/g. The “Tumor to organs ratio, Spleen” value ([2]; 96 h) was 69, the “Injected dose per gram, Spleen” value ([2]; 96 h post injection) was 0.24 % ID/g and the “Tumor to organs ratio, Tail” value ([2]; 6 h) was 48.4. The “Injected dose per gram, Tail” value ([2]; 6 h post injection) was 1.06 % ID/g, the “Tumor to organs ratio, Tail” value ([2]; 24 h) was 65.3 and the “Injected dose per gram, Tail” value ([2]; 24 h post injection) was 0.31 % ID/g. The “Tumor to organs ratio, Tail” value ([2]; 48 h) was 136.9, the “Injected dose per gram, Tail” value ([2]; 48 h post injection) was 0.14 % ID/g and the “Tumor to organs ratio, Tail” value ([2]; 72 h) was 108.9. The “Injected dose per gram, Tail” value ([2]; 72 h post injection) was 0.19 % ID/g, the “Tumor to organs ratio, Tail” value ([2]; 96 h) was 98 and the “Injected dose per gram, Tail” value ([2]; 96 h post injection) was 0.17 % ID/g. The “Injected dose per gram, Tumor” value ([2]; 6 h post injection, 360 min) was 48.96 % ID/g, the “Injected dose per gram, Tumor” value [2, 3] was ~ 49 % ID/g and the “Injected dose per gram, Tumor” value ([2]; 24 h post injection) was 19.78 % ID/g. The “Injected dose per gram, Tumor” value ([2]; 48 h post injection) was 16.64 % ID/g, the “Injected dose per gram, Tumor” value ([2]; 72 h post injection) was 20.19 % ID/g and the “Injected dose per gram, Tumor” value ([2]; 96 h post injection) was 16.26 % ID/g. The “tumor uptake / biodistribution profile, in words” value [2] was “best biodistribution profile”.
